The source of these data is patent US5100913A, “Novel sulfonylphenyl-β-D-thioxylosides, their method of preparation and their use in therapeutics” (Fournier Industrie et Sante, priority 1990, dated 1992).

The assay deals with venous thrombosis. As to the kind of experiment: antithrombotic activity, venous thrombosis: venous stasis under hypercoagulation (Wessler), thrombus removed and weighed. Type of assay: in vivo, male Wistar rats. The following applies: Rattus norvegicus, oral, suspension in PEG 400, thrombosis induced 4 hours after treatment. As for the experimental part:
A venous stasis under hypercoagulation is produced according to the technique described by WESSLER et al. (J. Applied Physiol. 1959, p. 943-946). As in the technique described by J. HAUPMAN et al. (Thrombosis and Haemostasis 43(2), 1980, p. 118), the hypercoagulant used is a solution of activated factor X (Xa) supplied by Flow Laboratories (71 Knat per 12.5 ml of isotonic solution).
The study is performed on unfasted male Wistar rats weighing 250 to 280 g, divided into groups of 10 animals each. The test products are administered orally as a suspension in PEG 400. A thrombosis is induced 4 hours after this treatment and the thrombus formed is removed and weighed.
The results obtained at a dose of 3 mg/kg, administered orally, have been collated in Table I. The results obtained with the known products of the afore-mentioned prior art have also been collated in this Table.

SMILES strings stand for the structures.

What is called inhibition in vivo is the relative decrease from the control value, in per cent. Low values mean a response near the control, high ones a response far below the control. Turning to `CS(=O)(=O)c1ccccc1S[C@@H]1SC[C@@H](O)[C@H](O)[C@H]1O` [Example 4, 2-(methylsulfonyl)phenyl 1.5-dithio-β-D-xylopyranoside], the inhibition in vivo at 3 mg/kg was found to be 26%.
For the compound `CC(=O)O[C@@H]1[C@@H](OC(C)=O)[C@H](Sc2ccccc2S(C)(=O)=O)SC[C@H]1OC(C)=O` [Example 3, 2-(methylsulfonyl)phenyl 2,3,4-tri-O-acetyl-1,5-dithio-β-D-xylopyranoside], 3 mg/kg produced 29% inhibition in vivo.
As for `CCS(=O)(=O)c1ccc(S[C@@H]2SC[C@@H](OC(C)=O)[C@H](OC(C)=O)[C@H]2OC(C)=O)cc1` [Example 9, 4-(ethylsulfonyl)phenyl 2,3,4-tri-O-acetyl-1,5-dithio-β-D-xylpyranoside], the figure is 31%; as for `CC(=O)O[C@@H]1[C@@H](OC(C)=O)[C@H](OC(C)=O)CS[C@H]1Oc1ccc(S(=O)(=O)N(C)C)cc1` [Example 19, 4-(N,N-dimethylsulfonamidyl)phenyl 2,3,4-tri-O-acetyl-5-thio-β-D-xylpyranoside], 23%; as for `CC(=O)O[C@@H]1[C@@H](OC(C)=O)[C@H](Sc2ccc(S(=O)(=O)c3ccccc3)cc2)SC[C@H]1OC(C)=O` [Example 1, 4-(phenylsulfonyl)phenyl 2,3,4-tri-O-acetyl-1,5-dithio-β-D-xylopyranoside], 20%.
As for `CC(=O)O[C@@H]1[C@@H](OC(C)=O)[C@H](Sc2ccc(S(=O)(=O)N(C)C)cc2)SC[C@H]1OC(C)=O` [Example 17, 4-(N,N-dimethylsulfonamidyl)phenyl 2,3,4-tri-O-acetyl-1,5-dithio-β-D-xylpyranoside], the figure is 56%; as for `CN(C)S(=O)(=O)c1ccc(O[C@@H]2SC[C@@H](O)[C@H](O)[C@H]2O)cc1` [Example 20, 4-(N,N-dimethylsulfonamidyl)phenyl 5-thio-β-D-xylpyranoside], 58%; as for `CS(=O)(=O)c1cccc(S[C@@H]2SC[C@@H](O)[C@H](O)[C@H]2O)c1` [Example 12], 43%.
The compound `CS(=O)(=O)c1ccc(O[C@@H]2SC[C@@H](O)[C@H](O)[C@H]2O)cc1` [Example 8, 4-(methylsulfonyl)phenyl 5-thio-β-D-xylpyranoside] came in with an inhibition in vivo at 3 mg/kg of 30%.
Take `CC(=O)O[C@@H]1[C@@H](OC(C)=O)[C@H](Sc2ccc(S(=O)(=O)c3ccc(F)cc3)cc2)SC[C@H]1OC(C)=O` [Example 13]: the inhibition in vivo at 3 mg/kg was found to be 58%.
In turn, `CS(=O)(=O)c1ccc(S[C@@H]2SC[C@@H](O)[C@H](O)[C@H]2O)cc1` [Example 6, 4-(methylsulfonyl)phenyl 1,5-dithio-β-D-xylopyranoside] yielded an inhibition in vivo at 3 mg/kg of 61%.
The result for `O=S(=O)(c1ccc(F)cc1)c1ccc(S[C@@H]2SC[C@@H](O)[C@H](O)[C@H]2O)cc1` [Example 14, 4-[(4-fluorophenyl)sulfonyl]phenyl 1,5-dithio-β-D-xylpyranoside] reads 61%; that for `CCS(=O)(=O)c1ccc(S[C@@H]2SC[C@@H](O)[C@H](O)[C@H]2O)cc1` [Example 10, 4-(ethylsulfonyl)phenyl 1,5dithio-β-D-xylopyranoside], 31%; that for `O=S(=O)(c1ccc(S[C@@H]2SC[C@@H](O)[C@H](O)[C@H]2O)cc1)N1CCCCC1` [Example 22, 4-(N-(piperidin-1-yl)sulfonamidyl)phenyl 1,5-dithio-β-D-xylpyranoside], 47%.
As for `N#Cc1ccc(S(=O)(=O)c2ccc(S[C@@H]3SC[C@@H](O)[C@H](O)[C@H]3O)cc2)cc1` [Example 16, 4-((4-cyanophenyl)sulfonyl)phenyl 1,5-dithio-β-D-xylopyranoside], the figure is 66%; as for `O=S(=O)(c1ccccc1)c1ccc(S[C@@H]2SC[C@@H](O)[C@H](O)[C@H]2O)cc1` [Example 2, 4-(phenylsulfonyl)phenyl 1,5-dithio-β-D-xylopyranoside], 49%.
`CN(C)S(=O)(=O)c1ccc(S[C@@H]2SC[C@@H](O)[C@H](O)[C@H]2O)cc1` [Example 18, 4-(N,N-dimethylsulfonamidyl)phenyl 1.5-dithio-β-D-xylopyranoside]: testing at 3 mg/kg gave an inhibition in vivo of 46%.
